# Values quoted from earlier work, collected in patent EP0551434B1 (BOARD OF REGENTS THE UNIVERSITY OF TEXAS SYSTEM, priority 1990, dated 1992).
# Target: estrogen receptor (Homo sapiens, UniProt P03372)
# Conditions: Salituro et al.; cited from earlier work
# estrogen receptor, sequence (P03372 whole entry): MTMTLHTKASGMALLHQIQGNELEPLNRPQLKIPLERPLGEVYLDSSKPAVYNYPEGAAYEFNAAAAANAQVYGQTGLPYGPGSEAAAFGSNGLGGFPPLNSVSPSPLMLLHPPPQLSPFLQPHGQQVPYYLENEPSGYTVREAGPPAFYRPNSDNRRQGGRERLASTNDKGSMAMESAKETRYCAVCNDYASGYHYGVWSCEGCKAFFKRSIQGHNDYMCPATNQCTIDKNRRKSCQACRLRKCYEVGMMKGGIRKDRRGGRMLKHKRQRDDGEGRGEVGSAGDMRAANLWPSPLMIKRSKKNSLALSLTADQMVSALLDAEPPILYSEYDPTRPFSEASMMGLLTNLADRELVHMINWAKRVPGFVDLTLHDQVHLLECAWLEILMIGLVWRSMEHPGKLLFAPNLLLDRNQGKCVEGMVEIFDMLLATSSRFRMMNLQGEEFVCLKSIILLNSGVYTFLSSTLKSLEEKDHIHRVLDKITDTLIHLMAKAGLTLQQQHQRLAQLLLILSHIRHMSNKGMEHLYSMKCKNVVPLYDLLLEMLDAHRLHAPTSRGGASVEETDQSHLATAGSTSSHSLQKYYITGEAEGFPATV
structure (smiles),measurement,value
"CC/C(=C(\c1ccccc1)c1ccc(OCCN2CC2)cc1)c1ccccc1 (single isomer, unassigned) [tamoxifen azizidine cis isomer, tamoxifen azizidine]",fold less affinity than the trans isomer,50 fold
